Experimental findings from patent publication EP0320002A1, “Inhalant” (KYORIN SEIYAKU KABUSHIKI KAISHA, priority 1987, dated 1989) are described below.

Molecules are shown by their SMILES. In brackets after ≈: the same amount, converted by molar mass.

This data set in a line: solubility of ibudilast in water. It is filed as physicochemical.

As to `CC(C)C(=O)c1c(C(C)C)nn2ccccc12` [ibudilast, 3-isobutyryl-2-isopropylpyrazolo[1,5-a]pyridine], the concentration in solution (solubility) came to 150 µg/mL (≈ 651 µM).
